Source: patent US20080132710A1, “ATRASENTAN HYDROCHLORIDE CRYSTALLINE FORM 2” (ABBOTT LABORATORIES, priority 2006, published 2008)
Structures can show the parent of a compound that is named as a salt.

Experiment: Crystalline form of atrasentan hydrochloride found in solvents over time (conversion to Form 2) at 25° C.
Format: physicochemical
Set-up: key: 1, 2 and 3 mean Atrasentan Hydrochloride Crystalline Forms 1, 2 and 3, respectively.; 1, 2 and 3 mean Atrasentan Hydrochloride Crystalline Forms 1, 2 and 3, respectively.; 1, 2 and 3 mean Atrasentan Hydrochloride Crystalline Forms 1, 2 and 3, respectively
Description: Examples of representative solvents that are useful for converting a particular crystalline form of atrasentan hydrochloride to Atrasentan Hydrochloride Crystalline Form 2 having substantial crystalline purity at 25° C. are shown in TABLE 2.

SMILES: CCCCN(CCCC)C(=O)CN1C[C@H](c2ccc3c(c2)OCO3)[C@@H](C(=O)O)[C@@H]1c1ccc(OC)cc1 [atrasentan hydrochloride, (2R,3R,4S)-(+)-2-(4-methoxyphenyl)-4-(1,3-benzodioxol-5-yl)-1-(N,N-di(n-butyl)aminocarbonylmethyl)pyrrolidine-3-carboxylic acid]
- crystalline form present (0.1M HCl, week 1): 1
- crystalline form present (0.1M HCl, week 2): 1
- crystalline form present (0.1M HCl, week 4): 1
- crystalline form present (0.1M HCl, week 9): 2
- crystalline form present (0.1M HCl, week 16): 2
- crystalline form present (IPA (isopropyl alcohol), week 1): 1
- crystalline form present (IPA (isopropyl alcohol), week 2): 1
- crystalline form present (IPA (isopropyl alcohol), week 4): 2
- crystalline form present (IPA (isopropyl alcohol), week 9): 2
- crystalline form present (IPA (isopropyl alcohol), week 16): 2
- crystalline form present (PEG 400 (polyethylene glycol), week 1): 1
- crystalline form present (PEG 400 (polyethylene glycol), week 2): 1
- crystalline form present (PEG 400 (polyethylene glycol), week 4): 1
- crystalline form present (PEG 400 (polyethylene glycol), week 9): 1
- crystalline form present (PEG 400 (polyethylene glycol), week 16): 2
- crystalline form present (acetone, week 1): 2
- crystalline form present (acetone, week 2): 2
- crystalline form present (acetone, week 4): 2
- crystalline form present (acetone, week 9): 2
- crystalline form present (acetone, week 16): 2
- crystalline form present (ethanol, week 1): 2
- crystalline form present (ethanol, week 2): 2
- crystalline form present (ethanol, week 4): 2
- crystalline form present (ethanol, week 9): 2
- crystalline form present (ethanol, week 16): 2
- crystalline form present (ethyl acetate, week 1): 1
- crystalline form present (ethyl acetate, week 2): 1
- crystalline form present (ethyl acetate, week 4): 1
- crystalline form present (ethyl acetate, week 9): 2
- crystalline form present (ethyl acetate, week 16): 2
- crystalline form present (nitromethane, week 1): 3
- crystalline form present (nitromethane, week 2): 3
- crystalline form present (nitromethane, week 4): 3
- crystalline form present (nitromethane, week 9): 3
- crystalline form present (nitromethane, week 16): 2
